“Also recorded” adds a separate entry of the source.
How the values were obtained:
[1] = TLC-based radiometric assay of product formation by 2-PS, CHS and CHS mutants; format: biochemical; conditions: for polyketide product formed: TLC, triple mutant and 2-PS confirmed by LC/MS; for starter molecule accepted: p-coumaroyl-CoA or acetyl-CoA as starter
Description: Comparison of the initiation/elongation cavities of 2-PS and CHS reveal four amino acid differences. In 2-PS, Leu202, Met259, Leu261, and Ile343 replace Thr197, Ile254, Gly256, and Ser338, respectively, of CHS. These four substitutions reduce cavity volume from 923 Å^3 in CHS to 274 Å^3 in 2-PS. A model of methylpyrone in the 2-PS cavity, based on the position of acetoacetyl-CoA, emphasizes the volume change compared to the CHS-naringenin complex (Accession No. 1CGK). Leu202 and Ile343 occlude the portion of the 2-PS cavity corresponding to the coumaroyl-binding site of CHS. Replacement of Gly256 in CHS by Leu261 in 2-PS severely reduces the size of the active site cavity. Substitution of Met259 in 2-PS for Ile254 in CHS produces a modest alteration in cavity volume. To examine the functional importance of these amino acid differences, the initiation/elongation cavity of CHS was altered by mutagenesis to resemble that of 2-PS. The resulting mutant proteins were screened for activity using either p-coumaroyl-CoA or acetyl-CoA as starter molecules. Activities of 2-PS, CHS, and the CHS mutants were determined by monitoring product formation using a TLC-based radiometric assay. Assay conditions were 100 mM Hepes (pH 7.0), 30 μM starter-CoA (either p-coumaroyl-CoA or acetyl-CoA), and 60 μM [^14C]-malonyl-CoA (50,000 cpm) in 100 μl at 25° C. Reactions were quenched with 5% acetic acid, extracted with ethyl acetate, and applied to TLC plates and developed. Due to the spontaneous cyclization of chalcone into the flavanone naringenin, activities of CHS are referenced to naringenin formation.
The x-ray crystal structures of 2-PS and CHS imply that the size of the active site cavity limits polyketide length and modulates folding of the polyketide chain. […] Since the T197L, G256L, and S338I mutants altered product formation, a CHS triple mutant was generated. […] LC/MS/MS analysis was performed by the Mass Spectroscopy facility of the Scripps Research Institute. Scaled-up assays (2 ml reaction volume) with the CHS T197L/G256L/S338I mutant and 2-PS were performed. Extracts were analyzed on a Hewlett-Packard HP1100 MSD single quadrupole mass spectrometer coupled to a ZorbaxSB-C18 column (5 μm, 2.1 mm×150 mm). HPLC conditions were as follows: gradient system from 0 to 100% methanol in water (each containing 0.2% acetic acid) within 10 min; flow rate 0.25 ml min^−1. LC/MS/MS data from both reactions were identical: 6-methyl-4-hydroxy-2pyrone, Rt=5.068 min; [M-H]^−125 (41); [M-H—CO2]^−[…] (100). The numbers show m/z values with relative intensities in parenthesis. The observed fragmentation matches previously published data.

CHS = conditions: covalently modifies Cys164; Lanz et al. 1991; cited from earlier work
[2] = Functional assay of malonyl-CoA decarboxylation by the C164S mutant; format: biochemical; conditions: determined crystallographically and confirmed by a functional assay
Description: Asn336 appears to play a crucial role in the decarboxylation reaction. […] In the hexanoyl-CoA complex, the side chain amide of Asn336 provides a hydrogen bond to the carbonyl oxygen of the thioester. This interaction would stabilize the enolate anion resulting from decarboxylation of malonyl-CoA (see FIG. 6). At the same time, the lack of formal positive charge at Asn336 may preserve the partial carbanion character of this resonance-stabilized anion, and thus the nucleophilicity of the carbanion form.

[3] = 30 μM starter-CoA, 60 μM [14C]-malonyl-CoA, pH 7.0, 25° C.

In the case of “CHS I254M: CHS mutant I254M of SEQ ID NO:1”, the “specific activity compared with wild-type enzyme” value [1] is reported as “functionally comparable to wild-type enzyme with a modest reduction in specific activity” and the polyketide product formed [1] is reported as “yields chalcone”.

With G256L: CHS mutant G256L of SEQ ID NO:1 the “preference for acetyl-CoA over coumaroyl-CoA as starter molecule” value [1, 3] was 3 fold and the polyketide product formed [1] was “do not form chalcone”.

In the case of T197L: CHS mutant T197L of SEQ ID NO:1, the “preference for p-coumaroyl-CoA versus acetyl-CoA as starter molecule” value [1, 3] is reported as 10 fold and the polyketide product formed [1] is reported as “do not form chalcone; also recorded: form a distinct product”.

For S338I: CHS mutant S338I of SEQ ID NO:1, the “preference for p-coumaroyl-CoA versus acetyl-CoA as starter molecule” value [1, 3] was 3 fold and the polyketide product formed [1] was “do not form chalcone; also recorded: form a distinct product”.

In the case of “2-PS: 2-Pyrone synthase from Gerbera hybrida, expressed in E. coli”, the polyketide product formed [1] is reported as “produces the triketide methylpyrone” and the starter molecule accepted [1] is reported as “accepts acetyl-CoA but does not use p-coumaroyl-CoA”.

For “T197L/G256L/S338I: CHS triple mutant with active site sterically analogous to 2-pyrone synthase”, the polyketide product formed [1] was “produces only methylpyrone” and the starter molecule accepted [1] was “only accepts acetyl-CoA (or malonyl-CoA)”.

For `C/C=C/C/C=C/CCC(=O)[C@H]1O[C@H]1C(N)=O` [Cerulenin], the “inhibition of CHS” value (CHS) is listed as “potent irreversible inhibitor”.

B1: C164S: CHS mutant C164S of SEQ ID NO:1 (protein, UniProt P30074 1-389, looked up, variant C164S)
Chalcone synthase 2: MVSVSEIRKAQRAEGPATILAIGTANPANCVEQSTYPDFYFKITNSEHKTELKEKFQRMCDKSMIKRRYMYLTEEILKENPNVCEYMAPSLDARQDMVVVEVPRLGKEAAVKAIKEWGQPKSKITHLIVCTTSGVDMPGADYQLTKLLGLRPYVKRYMMYQQGSFAGGTVLRLAKDLAENNKGARVLVVCSEVTAVTFRGPSDTHLDSLVGQALFGDGAAALIVGSDPVPEIEKPIFEMVWTAQTIAPDSEGAIDGHLREAGLTFHLLKDVPGIVSKNITKALVEAFEPLGISDYNSIFWIAHPGGPAILDQVEQKLALKPEKMNATREVLSEYGNMSSACVLFILDEMRKKSTQNGLKTTGEGLEWGVLFGFGPGLTIETVVLRSVAI
For B1, the “decarboxylation of malonyl-CoA / residual catalytic activity” value [2] was “retains limited catalytic activity; also recorded: produces acetyl-CoA”.

From patent US7217557B1, “Three-dimensional structure of polyketide synthases” (The Salk Institute for Biological Studies, priority 1999, dated 2007)
